Patent US20070128217A1 (priority 2003, published 2007)

How the values were obtained:
[1] = system: antibodies in sera from SARS patients (sera 1a, 1b, 2, 6, 37, 62, London, SARS-yellow, SARS-green); assay type: binding, human; parameters: Binding of serum 6 to linear peptides of protein X1 of SARS-CoV Urbani / Binding of serum 37 to linear peptides of protein X1 of SARS-CoV Urbani / Binding of serum 6 to looped/cyclic peptide (PEPSCAN-ELISA) / Binding of serum 37 to looped/cyclic peptide (PEPSCAN-ELISA) / Binding of serum 37 to looped/cyclic peptides of protein X1 of SARS-CoV Urbani / Binding of serum 6 to linear peptides of protein X2 / Binding of serum 37 to linear peptides of protein X2 / Binding of serum 37 to looped/cyclic peptides of protein X2 of SARS-CoV Urbani / Binding of serum 6 to linear peptides of protein M of SARS-CoV Urbani / Binding of serum 37 to linear peptides of protein M of SARS-CoV Urbani / Binding of serum 6 to looped/cyclic peptides of protein M of SARS-CoV Urbani / Binding of serum 37 to looped/cyclic peptides of protein M of SARS-CoV Urbani / Binding of serum 6 to linear peptides of protein X3 of SARS-CoV Urbani / Binding of serum 37 to linear peptides of protein X3 of SARS-CoV Urbani / Binding of serum 37 to looped/cyclic peptides of protein X3 of SARS-CoV Urbani / Binding of serum 6 to linear peptides of protein X4 of SARS-CoV Urbani / Binding of serum 37 to linear peptides of protein X4 of SARS-CoV Urbani / Binding of serum 37 to looped/cyclic peptides of protein X4 of SARS-CoV Urbani / Binding of serum 6 to linear peptides of protein X5 of SARS-CoV Urbani / Binding of serum 37 to linear peptides of protein X5 of SARS-CoV Urbani / Binding of serum 37 to looped/cyclic peptides of protein X5 of SARS-CoV Urbani / Binding of serum 6 to linear peptides of protein N of SARS-CoV Urbani / Binding of serum 37 to linear peptides of protein N of SARS-CoV Urbani / Binding of serum 6 to linear peptide (PEPSCAN-ELISA) / Binding of serum 1a to looped/cyclic peptides of protein N of SARS-CoV Urbani / Binding of serum 1b to looped/cyclic peptides of protein N of SARS-CoV Urbani / Binding of serum 2 to looped/cyclic peptides of protein N of SARS-CoV Urbani / Binding of serum 6 to looped/cyclic peptides of protein N of SARS-CoV Urbani / Binding of serum 37 to looped/cyclic peptides of protein N of SARS-CoV Urbani / Binding of serum 62 to looped/cyclic peptides of protein N of SARS-CoV Urbani / Binding of serum London to looped/cyclic peptides of protein N of SARS-CoV Urbani / Binding of serum SARS-green to looped/cyclic peptides of protein N of SARS-CoV Urbani: unit not given here
[2] = system: control sera (pooled serum of ten healthy LUMC hospital workers; commercial negative donor pooled serum from the Dutch bloodbank); assay type: binding, human; parameters: Binding of Control serum LUMC to linear peptides / Binding of Control serum Blood-bank to linear peptides / Binding of Control serum LUMC to looped peptides / Binding of Control Serum Blood-Bank to Looped peptides / Binding of Control serum LUMC to linear peptides of the protein M of SARS-CoV Urbani / Binding of Control serum Blood-bank to linear peptides of the protein M of SARS-CoV Urbani / Binding of Control serum LUMC to looped peptides of the protein M of SARS-CoV Urbani / Binding of Control Serum Blood-Bank to Looped peptides of the protein M of SARS-CoV Urbani: unit not given here
[3] = system: rabbit serum obtained by immunizing a rabbit with the SARS-CoV strain Frankfurt 1; assay type: binding; parameters: Binding of a rabbit serum to linear peptides / Binding of a rabbit serum to looped peptides / Rabbit serum linear peptides / Rabbit serum looped peptides / Binding of a rabbit serum to linear peptides of protein N of SARS-CoV Urbani (Rabbit serum linear peptides) / Binding of a rabbit serum to looped/cyclic peptides of protein N of SARS-CoV Urbani (Rabbit serum looped peptides): unit not given here
[4] = system: recombinant human anti-SARS-CoV antibody 03-018; assay type: binding; parameters: Binding of antibody 03-018 to linear peptides of the N protein of SARS-CoV Urbani / Binding of antibody 03-018 to looped/cyclic peptides of the N protein of SARS-CoV Urbani: unit not given here

Sequence | Binding of serum 1a to looped/cyclic peptides of protein N of SARS-CoV Urbani [1] | Binding of serum 1b to looped/cyclic peptides of protein N of SARS-CoV Urbani [1] | Binding of serum 2 to looped/cyclic peptides of protein N of SARS-CoV Urbani [1] | Binding of serum 6 to looped/cyclic peptides of protein N of SARS-CoV Urbani [1] | Binding of serum 37 to looped/cyclic peptides of protein N of SARS-CoV Urbani [1] | Binding of serum 62 to looped/cyclic peptides of protein N of SARS-CoV Urbani [1] | Binding of serum London to looped/cyclic peptides of protein N of SARS-CoV Urbani [1] | Binding of serum SARS-green to looped/cyclic peptides of protein N of SARS-CoV Urbani [1] | Binding of serum SARS-yellow to looped/cyclic peptides of protein N of SARS-CoV Urbani [1] | Binding of Control Serum Blood-Bank to Looped peptides [2] | Binding of Control serum Blood-bank to linear peptides [2] | Binding of Control serum LUMC to linear peptides [2] | Binding of Control serum LUMC to looped peptides [2] | Binding of a rabbit serum to linear peptides of protein N of SARS-CoV Urbani (Rabbit serum linear peptides) [3] | Binding of a rabbit serum to looped/cyclic peptides of protein N of SARS-CoV Urbani (Rabbit serum looped peptides) [3] | Binding of antibody 03-018 to linear peptides of the N protein of SARS-CoV Urbani [4] | Binding of antibody 03-018 to looped/cyclic peptides of the N protein of SARS-CoV Urbani [4] | Binding of serum 1a to linear peptide (PEPSCAN-ELISA) [1] | Binding of serum 1b to linear peptide (PEPSCAN-ELISA) [1] | Binding of serum 2 to linear peptide (PEPSCAN-ELISA) [1] | other results
RGGDGKMKELSPRWY | 0.3 | 0.2 | 0.4 | 0.3 | 0.5 | 0.4 | 0.4 | 0.3 | 0.4 | 0.6 | 0.6 | 0.6 | 0.6 | 0.1 | 0.4 | 0.1 | 0.2 | – | – | – | Binding of serum 1a to linear peptides of protein N of SARS-CoV Urbani [1]: 0.2; Binding of serum 1b to linear peptides of protein N of SARS-CoV Urbani [1]: 0.1; Binding of serum 2 to linear peptides of protein N of SARS-CoV Urbani [1]: 0.2; Binding of serum 6 to linear peptides of protein N of SARS-CoV Urbani [1]: 0.2; Binding of serum 37 to linear peptides of protein N of SARS-CoV Urbani [1]: 0.7; Binding of serum 62 to linear peptides of protein N of SARS-CoV Urbani [1]: 0.6; Binding of serum London to linear peptides of protein N of SARS-CoV Urbani [1]: 0.5; Binding of serum SARS-green to linear peptides of protein N of SARS-CoV Urbani [1]: 0.3; Binding of serum SARS-yellow to linear peptides of protein N of SARS-CoV Urbani [1]: 0.6
RGGSQASSRSSSRSR | 0.2 | 0.2 | 0.4 | 0.3 | 0.2 | 0.1 | 0.1 | 0.2 | 0.3 | 0.4 | 0.8 | 0.8 | 0.6 | 0.3 | 0.7 | 0.1 | 0.1 | 0.3 | 0.1 | 0.3 | Binding of serum 6 to linear peptide (PEPSCAN-ELISA) [1]: 0.4; Binding of serum 37 to linear peptide (PEPSCAN-ELISA) [1]: 0.7; Binding of serum 62 to linear peptide (PEPSCAN-ELISA) [1]: 0.7; Binding of serum London to linear peptide (PEPSCAN-ELISA) [1]: 0.5; Binding of serum SARS-green to linear peptide (PEPSCAN-ELISA) [1]: 0.3; Binding of serum SARS-yellow to linear peptide (PEPSCAN-ELISA) [1]: 0.7
RGNSRNSTPGSSRGN | 0.8 | 0.6 | 0.4 | 0.4 | 0.6 | 0.5 | 0.4 | 0.3 | 0.5 | 0.6 | 0.8 | 0.6 | 0.6 | 0.2 | 0.7 | 0.1 | 0.2 | 0.7 | 0.4 | 0.2 | Binding of serum 6 to linear peptide (PEPSCAN-ELISA) [1]: 0.2; Binding of serum 37 to linear peptide (PEPSCAN-ELISA) [1]: 0.7; Binding of serum 62 to linear peptide (PEPSCAN-ELISA) [1]: 0.7; Binding of serum London to linear peptide (PEPSCAN-ELISA) [1]: 0.4; Binding of serum SARS-green to linear peptide (PEPSCAN-ELISA) [1]: 0.2; Binding of serum SARS-yellow to linear peptide (PEPSCAN-ELISA) [1]: 0.8
RGPEQTQGNFGDQDL | 0.4 | 0.4 | 0.4 | 0.2 | 0.6 | 0.5 | 0.4 | 0.6 | 0.6 | 0.4 | 0.7 | 0.7 | 0.6 | 0.2 | 0.3 | 0.1 | 0.2 | – | – | – | Recognition of the peptide by sera of SARS-CoV infected individuals, and form (linear, looped/cyclic) in which it is recognized [1]: recognized in linear form
